# Experimental data: patent US11957687B2 (REGENERON PHARMACEUTICALS, INC., priority 2019, dated 2024)
# Columns and labels:
# [1] = target: HSD17B13 (Homo sapiens (Human), UniProt Q7Z5P4); assay: HSD17B13 enzymatic inhibition assay (150 nM or 50 nM HSD17B13); assay type: biochemical; conditions: 50 nM HSD17B13; read-out: Inhibition of 50 nM of HSD17B13 IC50
# [2] = Microsome stability assay, human liver microsomes; assay type: in vitro ADME; conditions: 1 μM compound, 0.5 mg/mL microsomal protein; for microsomal CLint at 1 h, 1 µM / half-life at 1 h, 1 µM / microsomal CLint at 1 μM / half-life at 1 μM: human, human liver microsomes, pooled, NADPH, 37° C.; for microsomal CLint at 1 h, 1 µM / microsomal CLint at 1 μM: read-out: Microsome Stability Human liver microsomes Cl; for half-life at 1 h, 1 µM / half-life at 1 μM: read-out: Microsome Stability Human liver microsomes T½
# Method in brief: (§1)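 Compound at 1 μM incubated at 37° C with pooled human or mouse liver microsomes (0.5 mg/mL protein) plus NADPH regenerating system, sampled at 0–60 min; a 60-min no-NADPH incubation also included. Single replicate; LC/MS/MS disappearance from analyte/internal standard peak area ratios, without standard curve.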
# [3] = Microsome stability assay, mouse liver microsomes; assay type: in vitro ADME; conditions: 1 μM compound, 0.5 mg/mL microsomal protein; for microsomal CLint at 1 μM / half-life at 1 μM / microsomal CLint at 1 h, 1 µM / half-life at 1 h, 1 µM: mouse, mouse liver microsomes, pooled, NADPH, 37° C.; for microsomal CLint at 1 μM / microsomal CLint at 1 h, 1 µM: read-out: Microsome Stability Mouse liver microsomes Cl; for half-life at 1 μM / half-life at 1 h, 1 µM: read-out: Microsome Stability Mouse liver microsomes T½
# Method in brief: as §1
# [4] = target: HSD17B1 (Homo sapiens (Human), UniProt P14061); assay: HSD17B1 enzymatic blocking assay; assay type: biochemical; conditions: 25 μM Estradiol, 500 μM NAD; read-out: Inhibition of HSD17B1 IC50
# Chain of HSD17B1 (P14061 other isoform, or with tags, fused parts or gaps): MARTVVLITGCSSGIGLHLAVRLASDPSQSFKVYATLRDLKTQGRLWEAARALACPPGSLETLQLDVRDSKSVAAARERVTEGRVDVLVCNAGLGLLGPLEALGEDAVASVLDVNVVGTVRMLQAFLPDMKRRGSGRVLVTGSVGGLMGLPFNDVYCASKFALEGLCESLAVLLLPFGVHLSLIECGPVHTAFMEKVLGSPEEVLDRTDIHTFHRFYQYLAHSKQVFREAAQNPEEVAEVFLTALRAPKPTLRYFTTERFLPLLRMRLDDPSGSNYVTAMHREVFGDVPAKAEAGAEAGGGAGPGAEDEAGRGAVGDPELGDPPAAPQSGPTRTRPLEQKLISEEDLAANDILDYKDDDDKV
# Method in brief: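 Activity followed as NADH formed on estradiol oxidation, read by NADH-Glo luminescence after 1 h detection in the dark at room temperature. Compounds preincubated with enzyme 30 min at room temperature; 0.5% DMSO and no-substrate controls. IC50 fitted from luminescence.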
# [5] = target: HSD17B2 (Homo sapiens (Human), UniProt P37059); assay: HSD17B2 enzymatic blocking assay; assay type: biochemical; conditions: 1.8 μM Estradiol, 650 μM NAD; read-out: Inhibition of HSD17B2 IC50
# Chain of HSD17B2 (P37059 other isoform, or with tags, fused parts or gaps): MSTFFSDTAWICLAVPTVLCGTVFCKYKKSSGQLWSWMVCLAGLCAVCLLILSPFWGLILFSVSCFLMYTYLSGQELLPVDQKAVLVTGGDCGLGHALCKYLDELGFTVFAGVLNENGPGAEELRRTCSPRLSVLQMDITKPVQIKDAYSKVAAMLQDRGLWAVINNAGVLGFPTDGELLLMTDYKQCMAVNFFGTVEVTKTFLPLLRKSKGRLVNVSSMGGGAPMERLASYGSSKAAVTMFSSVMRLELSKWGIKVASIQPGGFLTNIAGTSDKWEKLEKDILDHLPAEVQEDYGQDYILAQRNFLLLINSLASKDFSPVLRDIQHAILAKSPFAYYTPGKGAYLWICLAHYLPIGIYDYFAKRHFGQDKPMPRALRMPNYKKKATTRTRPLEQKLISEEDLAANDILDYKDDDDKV
# Method in brief: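 Mammalian-expressed enzyme at 2 ng/μL in 50 mM Tris-HCl pH 7.5 with detergents/BSA, preincubated 15 min at 20° C. with compound (10-point titration). Reaction with 1.8 μM estradiol and 650 μM NAD ran 45 min at 20° C.; NADH measured by NADH-Glo luminescence and IC50 derived.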
# Chain of HSD17B13 (Q7Z5P4 other isoform, or with tags, fused parts or gaps): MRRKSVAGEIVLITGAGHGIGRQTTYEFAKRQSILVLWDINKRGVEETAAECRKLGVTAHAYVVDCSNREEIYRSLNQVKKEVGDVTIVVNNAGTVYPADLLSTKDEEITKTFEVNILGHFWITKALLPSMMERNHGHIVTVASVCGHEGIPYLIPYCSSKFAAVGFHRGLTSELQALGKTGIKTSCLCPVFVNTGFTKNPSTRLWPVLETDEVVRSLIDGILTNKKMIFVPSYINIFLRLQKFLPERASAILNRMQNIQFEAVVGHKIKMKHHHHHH
IC50 [1],Microsome Stability Human liver microsomes % Remaining @60 min [2],"microsomal CLint at 1 h, 1 µM [2]","half-life at 1 h, 1 µM [2]",Microsome Stability Mouse liver microsomes % Remaining @60 min [3],microsomal CLint at 1 μM [3],half-life at 1 μM [3],IC50 [4],IC50 [5],"microsomal CLint at 1 h, 1 µM [3]","half-life at 1 h, 1 µM [3]",microsomal CLint at 1 μM [2],half-life at 1 μM [2],SMILES
0.51 µM,0.73%,157 µL/min/mg,8.84 min,83.70%,< 9.6 µL/min/mg,> 145 min,> 30 µM,65.4 µM,,,,,"COC1Cc2cc(C)ccc2C1NC(=O)c1ccc(C(F)(F)F)[nH]c1=O (stereo not drawn) [Compound 351, N-(2-methoxy-5-methyl-2,3-dihydro-1H-inden-1-yl)-2-oxo-6-(trifluoromethyl)-1,2-dihydropyridine-3-carboxamide]"
0.7 µM,5.86%,93.5 µL/min/mg,14.8 min,88.70%,< 9.6 µL/min/mg,> 145 min,> 30 µM,> 100 µM,,,,,"COc1ccc2c(c1)CC(OC)C2NC(=O)c1ccc(C(F)(F)F)[nH]c1=O (stereo not drawn) [Compound 352, N-(2,5-dimethoxy-2,3-dihydro-1H-inden-1-yl)-2-oxo-6-(trifluoromethyl)-1,2-dihydropyridine-3-carboxamide]"
0.59 µM,1%,318 µL/min/mg,4.36 min,36.20%,,,> 30 µM,23.1 µM,32.8 µL/min/mg,42.2 min,,,"CC[C@@H]1Oc2cc(C)ccc2[C@H]1NC(=O)c1ccc(C(F)(F)F)[nH]c1=O [Compound 360, N-((2S,3R)-2-ethyl-6-methyl-2,3-dihydrobenzofuran-3-yl)-2-oxo-6-(trifluoromethyl)-1,2-dihydropyridine-3-carboxamide]"
0.08 µM,58.50%,,,70%,12.1 µL/min/mg,114 min,> 30 µM,27.5 µM,,,15.3 µL/min/mg,90.7 min,"CCC[C@H]1C[C@@H](NC(=O)c2ccc(C(F)(F)F)[nH]c2=O)c2cc(C)ccc2N1 [Compound 362, N-((2S,4R)-6-methyl-2-propyl-1,2,3,4-tetrahydroquinolin-4-yl)-2-oxo-6-(trifluoromethyl)-1,2-dihydropyridine-3-carboxamide]"
0.05 µM,2.70%,112 µL/min/mg,12.3 min,21.60%,,,> 30 µM,27.7 µM,52 µL/min/mg,26.6 min,,,"CCCC1Cc2cc(C)ccc2C(NC(=O)c2ccc(C(F)(F)F)[nH]c2=O)C1 (stereo not drawn) [Compound 387, N-(6-methyl-3-propyl-1,2,3,4-tetrahydronaphthalen-1-yl)-2-oxo-6-(trifluoromethyl)-1,2-dihydropyridine-3-carboxamide]"
2.19 µM,45%,,,74%,,,> 30 µM,11.2 µM,10.2 µL/min/mg,135 min,26.4 µL/min/mg,52.5 min,"Cc1ccc2c(c1)OCCC2NC(=O)c1ccc(C(F)(F)F)[nH]c1=O (stereo not drawn) [Compound 441, N-(7-methylchroman-4-yl)-2-oxo-6-(trifluoromethyl)-1,2-dihydropyridine-3-carboxamide]"
0.59 µM,1%,203 µL/min/mg,6.83 min,1.60%,,,> 30 µM,16.1 µM,140 µL/min/mg,9.87 min,,,"Cc1cccc(C(NC(=O)c2ccc(C(F)(F)F)[nH]c2=O)c2ccccc2)c1 (stereo not drawn) [Compound 490, 2-oxo-N-(phenyl(m-tolyl)methyl)-6-(trifluoromethyl)-1,2-dihydropyridine-3-carboxamide]"
0.68 µM,88.90%,,,90.20%,< 9.6 µL/min/mg,> 145 min,> 30 µM,72.7 µM,,,< 9.6 µL/min/mg,> 145 min,"Nc1cccc2c1CCCC2NC(=O)c1ccc(C(F)(F)F)[nH]c1=O (stereo not drawn) [Compound 533, N-(5-amino-1,2,3,4-tetrahydronaphthalen-1-yl)-2-oxo-6-(trifluoromethyl)-1,2-dihydropyridine-3-carboxamide]"

SMILES,IC50 [1],Microsome Stability Human liver microsomes % Remaining @60 min [2],"microsomal CLint at 1 h, 1 µM [2]","half-life at 1 h, 1 µM [2]",Microsome Stability Mouse liver microsomes % Remaining @60 min [3],microsomal CLint at 1 μM [3],half-life at 1 μM [3],IC50 [4],IC50 [5],"microsomal CLint at 1 h, 1 µM [3]","half-life at 1 h, 1 µM [3]",microsomal CLint at 1 μM [2],half-life at 1 μM [2]
"CCC1Cc2cc(C)ccc2C(NC(=O)c2ccc(C(F)(F)F)[nH]c2=O)C1 (stereo not drawn) [Compound 388, N-(3-ethyl-6-methyl-1,2,3,4-tetrahydronaphthalen-1-yl)-2-oxo-6-(trifluoromethyl)-1,2-dihydropyridine-3-carboxamide]",0.05 µM,10%,150 µL/min/mg,9.26 min,24.60%,,,> 30 µM,25.8 µM,47.4 µL/min/mg,29.2 min,,
